The source of these data is patent US5416119A, “Alkylaminoalkyl-terminated sulfide/sulfonyl-containing cycloalkyl-alanine amino-diol compounds for treatment of hypertension” (G. D. Searle & Co., priority 1993, dated 1995).

SMILES strings stand for the structures.

This assay has as its target T1, Human Renin (Homo sapiens, UniProt P00797).
T1 construct: purchased National Institute for Biological Standards, London
T1 sequence (P00797 67-406): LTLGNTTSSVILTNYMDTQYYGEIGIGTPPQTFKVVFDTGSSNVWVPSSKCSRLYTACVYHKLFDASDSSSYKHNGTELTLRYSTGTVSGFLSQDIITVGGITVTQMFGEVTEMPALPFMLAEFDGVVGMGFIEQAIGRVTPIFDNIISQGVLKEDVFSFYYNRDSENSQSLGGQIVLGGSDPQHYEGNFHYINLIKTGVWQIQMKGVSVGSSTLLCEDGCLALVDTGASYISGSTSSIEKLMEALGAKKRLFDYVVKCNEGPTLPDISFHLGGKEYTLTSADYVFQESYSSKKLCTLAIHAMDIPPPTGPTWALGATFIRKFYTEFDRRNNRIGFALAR
As to the kind of experiment: Human renin inhibition in vitro (angiotensin I produced, determined by radioimmunoassay). It is filed as biochemical. The note with it: human plasma, pH 7.4, 37° C., two hours. The protocol: Compounds of Formula I were evaluated as inhibitors of human renin in an in vitro assay, as follows: This human renin inhibition test has been previously described in detail [Papaioannou et al., Clinical and Experimental Hypertension, A7(9), 1243-1257 (1985)]. Human renin was obtained from the National Institute for Biological Standards, London. An incubation mixture was prepared containing the following components: in a total volume of 0.25 mL: 100 mM Tris-acetate buffer at pH 7.4, 25×10^-6 Goldblatt units of renin, 0.05 mL of plasma from human volunteers taking oral contraceptives, 6.0 mM Na-EDTA, 2.4 mM phenylmethyl sulfonyl fluoride, 1.5 mM 8-hydroxyquinoline, 0.4 mg/mL bovine serum albumin (BSA), and 0.024 mg/mL neomycin sulfate. This mixture was incubated for two hours at 37° C. in the presence or absence of renin inhibitors. The produced angiotensin I was determined by radioimmunoassay (New England Nuclear kit). Test compounds to be assayed were dissolved in DMSO and diluted with 100 mM Tris-acetate buffer at pH 7.4 containing 0.5% BSA to the appropriate concentration. The final concentration of organic solvent in the reaction mixture was less than 1%. Control incubations at 37° C. were used to correct for effects of organic solvent on renin activity.

`CC(C)C[C@H](O)[C@H](O)[C@H](CC1CCCCC1)NC(=O)C(CC1CC1)NC(=O)C(Cc1ccccc1)CS(=O)(=O)CCN(C)C` (stereo partly drawn) [Example 1, N-[2-[[1S,1R*-(cyclohexylmethyl)-2S*,3R* -dihydroxy-5-methylhexyl]amino]-1R*-(cyclopropylmethyl)-2-oxoethyl]-α-[[[2-(dimethylamino)ethyl]sulfonyl]methyl]benzenepropanamide] gave an IC50 of 1.3 nM. This lies in the single-digit nanomolar range.

The IC50 is the concentration needed to halve the response being measured. Low values mean higher potency, high ones lower potency.
